In the OPERA property sets (Mansouri et al. 2018):
Where a SMILES comes first, the peptide text is derived from it.

Structure (SMILES): CCC(C)C(NC(C)=O)C(=O)NC(Cc1ccccc1)C(=O)NC(CCCNC(=N)N)C(N)=O (stereo not drawn) (Ac-Ile-Phe-Arg-NH2; configuration not given here)
- logP: -0.05

Structure (SMILES): CCOC(=O)C1=C(C)NC(C)=C(C(=O)OCC)C1c1cccc2c1OCO2
- logP: 4.32

Structure (SMILES): CC(C)CC(NC(=O)C(Cc1ccc(O)cc1)NC(=O)C(N)Cc1ccc(O)cc1)C(=O)O (stereo not drawn) (H-Tyr-Tyr-Leu-OH; configuration not given here)
- logP: -1.38

Structure (SMILES): CCOC(=O)C(C)(Cc1cccc2ccccc12)S(=O)(=O)c1ccc([N+](=O)[O-])cc1 (centres undefined)
- logP: 4.4

Structure (SMILES): COC(=O)c1cc2ccc3cccc4ccc(c1)c2c34
- logP: 4.85

Structure (SMILES): COC(=O)c1cc2cccc3ccc4cccc1c4c32
- logP: 4.73

Structure (SMILES): O=[N+]([O-])c1ccc2c(c1)-c1ccccc1C2
- logP: 3.99

Structure (SMILES): CCc1cccc(C)c1NC(=O)OC
- logP: 1.99

Structure (SMILES): CCN(CC)CC(=O)Nc1ccccc1
- logP: 2.49

Structure (SMILES): O=C(O)C(Cc1ccccc1)NC(=O)C1CCCN1 (stereo not drawn) (H-Pro-Phe-OH; configuration not given here)
- logP: -2.07

Structure (SMILES): CCOP(=O)(OCC)C(C)(C)[N+]([O-])=Cc1ccc(Cl)cc1
- logP: 2.29

Structure (SMILES): COCCOCCOCCOc1ccc(C2=NC(C)(C(=O)O)CS2)c(O)c1 (centres undefined)
- logP: 1.3

Structure (SMILES): CC1(C)OC23CC1CCC2CCCC3(C)O (centres undefined)
- logP: 3.57

Structure (SMILES): Cc1cc2oc(=O)cc(C)c2c2occc12
- logP: 2.84

Structure (SMILES): CCOC(=O)c1c(O)c2ccc(Cl)cc2[nH]c1=O
- logP: 2.6

Structure (SMILES): CC(C)CC(N)C(=O)NC(CO)C(=O)NC(CC(C)C)C(=O)O (stereo not drawn) (H-Leu-Ser-Leu-OH; configuration not given here)
- logP: -2.35

Structure (SMILES): CC1CC(=O)NN=C1c1ccc(-n2ccnc2)cc1 (centres undefined)
- logP: 1.29

Structure (SMILES): Nc1cccc(Nc2ccccc2C(=O)O)c1
- logP: 2.99

Structure (SMILES): O=C(Cc1ccccc1)Nc1[nH]cnc2ncnc1-2
- logP: 1.19

Structure (SMILES): O=C(O)CCCCCON=C(c1ccccc1)c1ncccn1
- logP: 2.25

Structure (SMILES): O=C1c2ccc(C(F)(F)F)cc2OCN1CCO[N+](=O)[O-]
- logP: 3.01

Structure (SMILES): CCN(CC)CCCC(C)NC(=O)c1ccc([N+](=O)[O-])cc1[N+](=O)[O-] (centres undefined)
- logP: 1.73

Structure (SMILES): O=C(NCC(F)(F)F)NS(=O)(=O)c1cnccc1NC1CCCCCC1
- logP: 3.85

Structure (SMILES): COc1ccc(CCNCC(O)COc2ccc(-c3nccs3)cc2)cc1OC (centres undefined)
- logP: 2.5

Structure (SMILES): NC(=O)C(CCN1CCCCC1)c1ccccc1Cl (centres undefined)
- logP: 2.46

Structure (SMILES): CCCN(CCC)C1CCc2ccc(O)cc2C1 (centres undefined)
- logP: 3.75

Structure (SMILES): c1ccc2c(c1)OCCOCCOc1ccccc1OCCO2
- logP: 2.21

Structure (SMILES): O=c1cc(-c2ccccc2)on1-c1ccc(Cl)cc1
- logP: 4.1

Structure (SMILES): CCC(CC)(C(=O)OC)S(=O)(=O)c1ccc([N+](=O)[O-])cc1
- logP: 2.24

Structure (SMILES): COC(=O)c1[nH]cc(-c2ccc(Br)cc2)c1N1CCOCC1
- logP: 3.8

Structure (SMILES): NC(=O)Cc1c[nH]c2ccccc12
- logP: 0.75

Structure (SMILES): CC1CCCCC1NC(=O)N1C(=O)N(C)CC1O (centres undefined)
- logP: 2.2

Structure (SMILES): COc1cc2c(c(OC)c1OC)-c1ccc(SC)c(=S)cc1C(NC(C)=O)CC2 (centres undefined)
- logP: 1.75

Structure (SMILES): COC(=O)C(C)NP(=O)(OCC1C=CC(n2cc(C)c(=O)[nH]c2=O)O1)Oc1ccc(OC)cc1 (centres undefined)
- logP: 1.09

Structure (SMILES): COc1ccc2c(c1)COP(=O)(OCC1C=CC(n3cc(C)c(=O)[nH]c3=O)O1)O2 (centres undefined)
- logP: 0.36

Structure (SMILES): CCOC(=O)C(=Cc1ccccc1)S(=O)(=O)c1ccc([N+](=O)[O-])cc1
- logP: 3.2

Structure (SMILES): CC(=O)NC(CCCN(Cc1ccccc1)C(=O)N(C)N=O)C(=O)NCc1ccccc1 (centres undefined)
- logP: 2

Structure (SMILES): COc1c2ccccc2cc2ccccc12
- logP: 4.36

Structure (SMILES): COc1ccc(CCNCC(O)COc2ccc(-c3nc(C)c(Br)[nH]3)cc2)cc1OC (centres undefined)
- logP: 3.9

Structure (SMILES): CCCCCCCNc1ncnc2nc[nH]c12
- logP: 3.71

Structure (SMILES): O=C(OC1Cc2c(O)cc(O)cc2OC1c1ccc(O)c(O)c1)c1ccccc1 (centres undefined)
- logP: 3.44

Structure (SMILES): O=Cc1ccc2ccc3cccc4ccc1c2c34
- logP: 4.23

Structure (SMILES): COc1ccccc1-n1nnnc1N
- logP: 0.56

Structure (SMILES): Nc1nnnn1-c1ccc(F)cc1
- logP: 0.75

Structure (SMILES): CON(C)C(=O)Nc1ccc(NS(C)(=O)=O)cc1
- logP: 0.14

Structure (SMILES): CC(C)C[C@H](NC(=O)[C@@H](NC(=O)[C@@H](N)CC(C)C)C(C)C)C(=O)O (H-Leu-Val-Leu-OH)
- logP: -1.57

Structure (SMILES): CCON=C(CC)C1=C(O)CC(c2cccc(Oc3ncc(C(F)(F)F)cc3F)c2)CC1=O (centres undefined)
- logP: 4.63

Structure (SMILES): CCCCNc1ncnc2nc[nH]c12
- logP: 2

Structure (SMILES): CCC(C)C(NC(=O)C(N)CC(C)C)C(=O)O (stereo not drawn) (H-Leu-Ile-OH; configuration not given here)
- logP: -1.64

Structure (SMILES): CC(=O)Oc1ccccc1C(=O)OC1Cc2c(O)cc(O)cc2OC1c1ccc(O)c(O)c1 (centres undefined)
- logP: 2.87

Structure (SMILES): O=c1[nH]c2cc(Cl)c(Cl)c([N+](=O)[O-])c2[nH]c1=O
- logP: 0.21

Structure (SMILES): Clc1cc2c(oc3c(Cl)c(Cl)ccc32)c(Cl)c1Cl
- logP: 6.47

Structure (SMILES): CC(=NNC(=O)c1cccc(Br)c1)c1cnccn1
- logP: 2.9

Structure (SMILES): CC1CC2C3CCC4=CC(=O)C=CC4(C)C3(F)C(O)CC2(C)C1(O)C(=O)COC(=O)C1CCCCC1 (centres undefined)
- logP: 4.46

Structure (SMILES): CC(=O)OC1CC(OC2C(O)CC(OC3C(O)CC(OC4CCC5(C)C(CCC6C5CC(O)C5(C)C(C7=CC(=O)OC7)CCC65O)C4)OC3C)OC2C)OC(C)C1OC(C)=O (centres undefined)
- logP: 2.59

Structure (SMILES): CCC(C)C(NC(=O)C(CC(C)C)NC(=O)C(NC(=O)C(N)CCSC)C(C)CC)C(=O)O (centres undefined) (H-MILI-OH; configuration not given here)
- logP: -0.49

Structure (SMILES): CC1CC(N)CN1c1nc2c(cc1F)c(=O)c(C(=O)O)cn2-c1ccc(F)cc1F (centres undefined)
- logP: -0.2

Structure (SMILES): CN1COCc2c1ccc1cc3ccc4c(c3nc21)COC(=O)N4
- logP: 1.7

Structure (SMILES): Cc1cc2c(ccc3c(C)c(C)c(=O)n(C)c32)o1
- logP: 3.54

Structure (SMILES): C=CC(=O)Oc1ccccc1
- logP: 1.94

Structure (SMILES): COc1cccc2c1CCC(N)C2C (centres undefined)
- logP: 2.26

Structure (SMILES): O=C1c2ccc(Cl)cc2OCN1CCO[N+](=O)[O-]
- logP: 2.74

Structure (SMILES): CCCCc1c(O)c(=O)cc(C)n1C
- logP: 0.9

Structure (SMILES): NC1CC(CO)N(c2cc3c(cc2F)c(=O)c(C(=O)O)cn3-c2ccc(F)cc2F)C1 (centres undefined)
- logP: -0.98

Structure (SMILES): Clc1c2ccccc2cc2ccccc12
- logP: 5.27

Structure (SMILES): CC(C)CC(NC(=O)C(N)Cc1ccc(O)cc1)C(=O)O (stereo not drawn) (H-Tyr-Leu-OH; configuration not given here)
- logP: -1.75

Structure (SMILES): N#Cc1cccc(Cn2cccn2)c1
- logP: 1.74

Structure (SMILES): CCCCCC(=O)OCC(=O)C1(O)C(C)CC2C3CCC4=CC(=O)C=CC4(C)C3(F)C(O)CC21C (centres undefined)
- logP: 4.3

Structure (SMILES): COC(=O)C(C)(C)S(=O)(=O)c1ccc([N+](=O)[O-])cc1
- logP: 1.38

Structure (SMILES): COc1ccc(C2Cc3cc(C(F)(F)F)ccc3N(CCN(C)C)C(=O)C2CC(C)=O)cc1 (centres undefined)
- logP: 4.7

Structure (SMILES): Cc1ccc(Br)cc1F
- logP: 3.64

Structure (SMILES): Clc1cccc(CNc2[nH]cnc3ncnc2-3)c1
- logP: 2.89

Structure (SMILES): Cc1c(O)c(=O)ccn1CCCOC(=O)c1ccc(F)cc1
- logP: 1.47

Structure (SMILES): CC(C)CC(N)C(=O)N1CCCC1C(=O)NC(CC(C)C)C(=O)O (centres undefined)
- logP: -1.56

Structure (SMILES): Cc1c(C)c2cc3c(C)coc3c(C)c2oc1=O
- logP: 3.62

Structure (SMILES): CCN(CC)CCSC(=NO)c1nc(Cc2ccccc2)no1
- logP: 2.55

Structure (SMILES): O=c1cc(-c2ccccc2)oc2c(Cl)cc(Cl)cc12
- logP: 4.76

Structure (SMILES): CC(C)Nc1nc(N)nc(O)n1
- logP: 1.27

Structure (SMILES): O=C1C(O)N=C(c2ccccc2)c2cc(Cl)ccc2N1CCO (centres undefined)
- logP: 1.53

Structure (SMILES): CCCCCCCCCCCCN(C)N=Nc1ccc(C(N)=O)cc1
- logP: 6.58

Structure (SMILES): C[N+](C)([O-])Cc1ccccc1
- logP: -0.57

Structure (SMILES): O=c1cc(CSc2nc3ccccc3[nH]2)occ1O
- logP: 1.51

Structure (SMILES): COP(=O)(OC)Oc1c(Cl)cc(C)cc1Cl
- logP: 2.66

Structure (SMILES): CCCc1nc(NC)nc(N2CCOCC2)n1
- logP: 2.15
